Values quoted from earlier work in US20140113009A1, “CONTROLLED APPLICATION OF CROSS-LINKING AGENT” (Avedro, Inc., priority 2012, published 2014).

Assays:
[1] = compared with Riboflavin
[2] = combined with greater than 40 mM ascorbic acid; after 4 hours of light exposure

solubility in water relative to Riboflavin [1]	SMILES	Riboflavin remains unreacted [2]
more soluble in water	Cc1cc2nc3c(=O)[nH]c(=O)nc-3n(C[C@H](O)[C@H](O)[C@H](O)COP(=O)(O)O)c2cc1C [FMN, Riboflavin-5-phosphate]	
	O=C1O[C@H]([C@@H](O)CO)C(O)=C1O [ascorbic acid]	more than 90%
